From ChEMBL document CHEMBL1201862, “PubChem BioAssay data set” (2004)
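Cultured in 96-well plates, cells were exposed to test compound for 48 hours across five concentrations. GI50 = concentration required for 50% inhibition of growth.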 Activity calls are given as the source filed them. Rule as the data show it: active = GI50 up to about 1.1 µM and inactive = higher.

Assays:
Assay in all cases: NCI-60 cell line screen, 48 h
HOP-62 = system: HOP-62
LOX IMVI = system: LOX IMVI
T47D = system: T47D
SK-MEL-5 = system: SK-MEL-5
SF-295 = system: SF-295
UACC-257 = system: UACC-257
HOP-92 = system: HOP-92
M14 = system: M14
MDA-MB-231 = system: MDA-MB-231
OVCAR-5 = system: OVCAR-5
A498 = system: A498
MDA-MB-435 = system: MDA-MB-435
HCC 2998 = system: HCC 2998
SK-MEL-28 = system: SK-MEL-28
Hs-578T = system: Hs-578T
RXF 393 = system: RXF 393
SF-539 = system: SF-539
EKVX = system: EKVX
SF-268 = system: SF-268
OVCAR-8 = system: OVCAR-8
COLO 205 = system: COLO 205
OVCAR-4 = system: OVCAR-4
SNB-19 = system: SNB-19
MOLT-4 = system: MOLT-4
U-251 = system: U-251
SK-OV-3 = system: SK-OV-3
DU-145 = system: DU-145
SW-620 = system: SW-620
NCI-H226 = system: NCI-H226
HCT-15 = system: HCT-15
MCF7 = system: MCF7
RPMI-8226 = system: RPMI-8226
NCI-H23 = system: NCI-H23
K562 = system: K562
NCI/ADR-RES = system: NCI/ADR-RES
IGROV-1 = system: IGROV-1
SN12C = system: SN12C
A549 = system: A549
SNB-75 = system: SNB-75
HT-29 = system: HT-29
HCT-116 = system: HCT-116
786-0 = system: 786-0
TK-10 = system: TK-10
HL-60 = system: HL-60
UO-31 = system: UO-31
ACHN = system: ACHN
Malme-3M = system: Malme-3M
CCRF-CEM = system: CCRF-CEM
NCI-H460 = system: NCI-H460
KM12 = system: KM12
UACC-62 = system: UACC-62
SR = system: SR
SK-MEL-2 = system: SK-MEL-2
NCI-H522 = system: NCI-H522
PC-3 = system: PC-3
OVCAR-3 = system: OVCAR-3
CAKI-1 = system: CAKI-1
MDA-N = system: MDA-N

COc1cc(CNC(=S)CCCCCCCCCCC(C)C)ccc1O
GI50 (HOP-62): 58.6 µM (inactive) | GI50 (LOX IMVI): 41.9 µM (inactive) | GI50 (T47D): 27 µM (inactive) | GI50 (SK-MEL-5): 36.2 µM (inactive) | GI50 (SF-295): 43.7 µM (inactive) | GI50 (UACC-257): 38.5 µM (inactive) | GI50 (HOP-92): 24.2 µM (inactive) | GI50 (M14): 48.4 µM (inactive) | GI50 (MDA-MB-231): > 100 µM (inactive) | GI50 (OVCAR-5): > 100 µM (inactive) | GI50 (A498): 31.6 µM (inactive) | GI50 (MDA-MB-435): 41.9 µM (inactive) | GI50 (HCC 2998): 63.1 µM (inactive) | GI50 (SK-MEL-28): > 100 µM (inactive) | GI50 (Hs-578T): 22.2 µM (inactive) | GI50 (RXF 393): > 100 µM (inactive) | GI50 (SF-539): > 100 µM (inactive) | GI50 (EKVX): 62.8 µM (inactive) | GI50 (SF-268): > 100 µM (inactive) | GI50 (OVCAR-8): 49 µM (inactive) | GI50 (COLO 205): 70.6 µM (inactive) | GI50 (OVCAR-4): 53.6 µM (inactive) | GI50 (SNB-19): 72.6 µM (inactive) | GI50 (MOLT-4): 5.92 µM (inactive) | GI50 (U-251): 72.1 µM (inactive) | GI50 (SK-OV-3): > 100 µM (inactive) | GI50 (DU-145): > 100 µM (inactive) | GI50 (SW-620): > 100 µM (inactive) | GI50 (NCI-H226): 18.4 µM (inactive) | GI50 (HCT-15): 63 µM | GI50 (MCF7): 41.5 µM (inactive) | GI50 (RPMI-8226): 37.2 µM (inactive) | GI50 (NCI-H23): 28.7 µM (inactive) | GI50 (K562): 35.2 µM (inactive) | GI50 (NCI/ADR-RES): 46.3 µM (inactive) | GI50 (IGROV-1): 44.2 µM (inactive) | GI50 (SN12C): 92.3 µM (inactive) | GI50 (A549): 53 µM (inactive) | GI50 (SNB-75): > 100 µM (inactive) | GI50 (HT-29): 36.7 µM (inactive) | GI50 (HCT-116): 31.6 µM (inactive) | GI50 (786-0): 63.5 µM (inactive) | GI50 (TK-10): > 100 µM (inactive) | GI50 (HL-60): 13.3 µM (inactive) | GI50 (UO-31): 11.9 µM (inactive) | GI50 (ACHN): 58.7 µM (inactive) | GI50 (Malme-3M): > 100 µM (inactive) | GI50 (CCRF-CEM): 1.19 µM (inactive) | GI50 (NCI-H460): 42.9 µM (inactive) | GI50 (KM12): 28.4 µM (inactive) | GI50 (UACC-62): 34.4 µM (inactive) | GI50 (SR): 3.01 µM (inactive)

O=C1C(Cl)=C(N2CCN(CCOCCO)CC2)C(=O)c2c(O)ccc(O)c21
GI50 (T47D): 0.264 µM (active) | GI50 (HOP-92): 0.237 µM (active) | GI50 (OVCAR-5): 1.87 µM (inactive) | GI50 (HCC 2998): 1.83 µM (inactive) | GI50 (SF-539): 1.75 µM (inactive) | GI50 (DU-145): 1.82 µM (inactive) | GI50 (NCI-H226): 1.89 µM (inactive) | GI50 (HCT-15): 0.227 µM | GI50 (A549): 2.01 µM (inactive) | GI50 (SNB-75): 1.6 µM (inactive) | GI50 (NCI-H460): 1.98 µM (inactive)

c1ccc2c(Nc3ccc(Oc4ccc(Nc5c6ccccc6nc6ccccc56)cc4)cc3)c3ccccc3nc2c1
GI50 (LOX IMVI): 0.792 µM (active) | GI50 (T47D): 0.556 µM (active) | GI50 (SK-MEL-2): 1.96 µM (inactive) | GI50 (SK-MEL-5): 1.57 µM (inactive) | GI50 (NCI-H522): 0.665 µM (active) | GI50 (SF-295): 1.67 µM (inactive) | GI50 (HOP-92): 1.83 µM (inactive) | GI50 (M14): 0.0925 µM (active) | GI50 (PC-3): 1.6 µM (inactive) | GI50 (OVCAR-5): 0.528 µM (active) | GI50 (A498): 1.85 µM (inactive) | GI50 (MDA-MB-435): 0.0647 µM (active) | GI50 (HCC 2998): < 0.01 µM (active) | GI50 (SK-MEL-28): 0.102 µM (active) | GI50 (Hs-578T): 2.21 µM (inactive) | GI50 (OVCAR-3): 0.0659 µM (active) | GI50 (RXF 393): 2.4 µM (inactive) | GI50 (EKVX): 1.5 µM (inactive) | GI50 (SF-268): 1.57 µM (inactive) | GI50 (OVCAR-8): 0.139 µM (active) | GI50 (COLO 205): 0.815 µM (active) | GI50 (OVCAR-4): 0.0668 µM (active) | GI50 (SNB-19): 0.299 µM (active) | GI50 (SK-OV-3): 1.72 µM (inactive) | GI50 (DU-145): 0.277 µM (active) | GI50 (SW-620): 0.0649 µM (active) | GI50 (NCI-H226): 1.72 µM (inactive) | GI50 (MCF7): 0.0942 µM (active) | GI50 (NCI-H23): 0.181 µM (active) | GI50 (NCI/ADR-RES): 0.0655 µM (active) | GI50 (CAKI-1): 1.63 µM (inactive) | GI50 (SNB-75): 0.436 µM (active) | GI50 (786-0): 0.0504 µM (active) | GI50 (TK-10): 1.19 µM (inactive) | GI50 (HL-60): 0.547 µM (active) | GI50 (Malme-3M): 1.73 µM (inactive) | GI50 (NCI-H460): 0.618 µM (active)

O=c1[nH]c(=O)n(COCc2ccccc2)c2ccccc12
GI50 (LOX IMVI): 95.3 µM (inactive) | GI50 (SK-MEL-2): > 100 µM (inactive) | GI50 (SK-MEL-5): 27.7 µM (inactive) | GI50 (SF-295): > 100 µM (inactive) | GI50 (UACC-257): 53.7 µM (inactive) | GI50 (HOP-92): 77.6 µM (inactive) | GI50 (M14): > 100 µM (inactive) | GI50 (MDA-MB-231): 49.2 µM (inactive) | GI50 (PC-3): 39.7 µM (inactive) | GI50 (OVCAR-5): > 100 µM (inactive) | GI50 (A498): > 100 µM (inactive) | GI50 (MDA-MB-435): > 100 µM (inactive) | GI50 (SK-MEL-28): 91.4 µM (inactive) | GI50 (OVCAR-3): 87.3 µM (inactive) | GI50 (RXF 393): 19.1 µM (inactive) | GI50 (SF-539): 47.9 µM (inactive) | GI50 (EKVX): 22.5 µM (inactive) | GI50 (OVCAR-8): 40.9 µM (inactive) | GI50 (COLO 205): 72.3 µM (inactive) | GI50 (OVCAR-4): 44.3 µM (inactive) | GI50 (SNB-19): 23 µM (inactive) | GI50 (MOLT-4): 44.4 µM (inactive) | GI50 (MDA-N): 83 µM (inactive) | GI50 (U-251): 52.1 µM (inactive) | GI50 (SK-OV-3): 89.9 µM (inactive) | GI50 (DU-145): > 100 µM (inactive) | GI50 (SW-620): > 100 µM (inactive) | GI50 (NCI-H226): 47.8 µM (inactive) | GI50 (HCT-15): 14 µM | GI50 (MCF7): 38 µM (inactive) | GI50 (K562): 45.6 µM (inactive) | GI50 (NCI/ADR-RES): 20.5 µM (inactive) | GI50 (IGROV-1): 18.4 µM (inactive) | GI50 (SN12C): > 100 µM (inactive) | GI50 (A549): 92.7 µM (inactive) | GI50 (CAKI-1): 62.7 µM (inactive) | GI50 (SNB-75): 13.1 µM (inactive) | GI50 (HT-29): 31.9 µM (inactive) | GI50 (HCT-116): 46.3 µM (inactive) | GI50 (786-0): > 100 µM (inactive) | GI50 (TK-10): 51.5 µM (inactive) | GI50 (HL-60): 19.9 µM (inactive) | GI50 (UO-31): 29.1 µM (inactive) | GI50 (ACHN): 32.1 µM (inactive) | GI50 (CCRF-CEM): 56.9 µM (inactive) | GI50 (NCI-H460): 40.9 µM (inactive) | GI50 (KM12): 59.8 µM (inactive) | GI50 (UACC-62): 75 µM (inactive) | GI50 (SR): 37 µM (inactive)
